{"source": "patent US11707440B2", "about": "(priority 2017, dated 2023)", "test_system": "subjects with MDD at imminent risk for suicide", "key": {"[1]": {"conditions": "TEAE in ≥5% of subjects in any treatment group, double-blind phase, safety analysis set"}, "[2]": {"conditions": "TEAE leading to study discontinuation, double-blind phase, safety analysis set"}, "[3]": {"conditions": "adverse events, follow up phase, safety (FU) analysis set"}}, "note": "Read-outs that look alike come from different tables or passages of the source.", "data": [{"smiles": "CN[C@]1(c2ccccc2Cl)CCCCC1=O", "note": "[Esketamine 84 mg]", "values": [{"measurement": "Abdominal pain", "setting": "[1]", "result": "0 no. subjects (%)"}, {"measurement": "Acne", "setting": "[1]", "result": "2 (5.7%) no. subjects (%)"}, {"measurement": "Agitation", "setting": "[1]", "result": "3 (8.6%) no. subjects (%)"}, {"measurement": "Anxiety", "setting": "[1]", "result": "6 (17.1%) no. subjects (%)"}, {"measurement": "Blepharospasm", "setting": "[1]", "result": "0 no. subjects (%)"}, {"measurement": "Blood pressure increased", "setting": "[1]", "result": "2 (5.7%) no. subjects (%)"}, {"measurement": "Constipation", "setting": "[1]", "result": "0 no. subjects (%)"}, {"measurement": "Diarrhea", "setting": "[1]", "result": "3 (8.6%) no. subjects (%)"}, {"measurement": "Diplopia", "setting": "[1]", "result": "2 (5.7%) no. subjects (%)"}, {"measurement": "Dissociation", "setting": "[1]", "result": "11 (31.4%) no. subjects (%)"}, {"measurement": "Dizziness", "setting": "[1]", "result": "12 (34.3%) no. subjects (%)"}, {"measurement": "Dizziness postural", "setting": "[1]", "result": "2 (5.7%) no. subjects (%)"}, {"measurement": "Dry mouth", "setting": "[1]", "result": "3 (8.6%) no. subjects (%)"}, {"measurement": "Dysgeusia", "setting": "[1]", "result": "11 (31.4%) no. subjects (%)"}, {"measurement": "Ear and labyrinth disorders", "setting": "[1]", "result": "9 (25.7%) no. subjects (%)"}, {"measurement": "Epistaxis", "setting": "[1]", "result": "0 no. subjects (%)"}, {"measurement": "Euphoric mood", "setting": "[1]", "result": "4 (11.4%) no. subjects (%)"}, {"measurement": "Eye disorders", "setting": "[1]", "result": "7 (20.0%) no. subjects (%)"}, {"measurement": "Fatigue", "setting": "[1]", "result": "2 (5.7%) no. subjects (%)"}, {"measurement": "Feeling abnormal", "setting": "[1]", "result": "3 (8.6%) no. subjects (%)"}, {"measurement": "Feeling cold", "setting": "[1]", "result": "2 (5.7%) no. subjects (%)"}, {"measurement": "Flatulence", "setting": "[1]", "result": "1 (2.9%) no. subjects (%)"}, {"measurement": "Gastrointestinal disorders", "setting": "[1]", "result": "19 (54.3%) no. subjects (%)"}, {"measurement": "General disorders and administration site conditions", "setting": "[1]", "result": "10 (28.6%) no. subjects (%)"}, {"measurement": "Headache", "setting": "[1]", "result": "11 (31.4%) no. subjects (%)"}, {"measurement": "Hyperacusis", "setting": "[1]", "result": "2 (5.7%) no. subjects (%)"}, {"measurement": "Hyperhidrosis", "setting": "[1]", "result": "2 (5.7%) no. subjects (%)"}, {"measurement": "Hypoesthesia", "setting": "[1]", "result": "3 (8.6%) no. subjects (%)"}, {"measurement": "Hypoesthesia oral", "setting": "[1]", "result": "2 (5.7%) no. subjects (%)"}, {"measurement": "Infections and infestations", "setting": "[1]", "result": "1 (2.9%) no. subjects (%)"}, {"measurement": "Insomnia", "setting": "[1]", "result": "3 (8.6%) no. subjects (%)"}, {"measurement": "Intranasal paranesthesia", "setting": "[1]", "result": "0 no. subjects (%)"}, {"measurement": "Investigations", "setting": "[1]", "result": "5 (14.3%) no. subjects (%)"}, {"measurement": "Nasal congestion", "setting": "[1]", "result": "1 (2.9%) no. subjects (%)"}, {"measurement": "Nasal discomfort", "setting": "[1]", "result": "3 (8.6%) no. subjects (%)"}, {"measurement": "Nausea", "setting": "[1]", "result": "13 (37.1%) no. subjects (%)"}, {"measurement": "Nervous system disorders", "setting": "[1]", "result": "25 (71.4%) no. subjects (%)"}, {"measurement": "Oropharyngeal pain", "setting": "[1]", "result": "2 (5.7%) no. subjects (%)"}, {"measurement": "Panic attack", "setting": "[1]", "result": "0 no. subjects (%)"}, {"measurement": "Paresthesia", "setting": "[1]", "result": "6 (17.1%) no. subjects (%)"}, {"measurement": "Paresthesia oral", "setting": "[1]", "result": "2 (5.7%) no. subjects (%)"}, {"measurement": "Pharyngeal hypoesthesia", "setting": "[1]", "result": "2 (5.7%) no. subjects (%)"}, {"measurement": "Pollakiuria", "setting": "[1]", "result": "0 no. subjects (%)"}, {"measurement": "Psychiatric disorders", "setting": "[1]", "result": "20 (57.1%) no. subjects (%)"}, {"measurement": "Rash", "setting": "[1]", "result": "1 (2.9%) no. subjects (%)"}, {"measurement": "Renal and urinary disorders", "setting": "[1]", "result": "1 (2.9%) no. subjects (%)"}, {"measurement": "Respiratory, thoracic and mediastinal disorders", "setting": "[1]", "result": "9 (25.7%) no. subjects (%)"}, {"measurement": "Rhinalgia", "setting": "[1]", "result": "0 no. subjects (%)"}, {"measurement": "Rhinorrhoea", "setting": "[1]", "result": "0 no. subjects (%)"}, {"measurement": "Sedation", "setting": "[1]", "result": "6 (17.1%) no. subjects (%)"}, {"measurement": "Skin and subcutaneous tissue disorders", "setting": "[1]", "result": "5 (14.3%) no. subjects (%)"}, {"measurement": "Somnolence", "setting": "[1]", "result": "4 (11.4%) no. subjects (%)"}, {"measurement": "Suicidal ideation", "setting": "[1]", "result": "2 (5.7%) no. subjects (%)"}, {"measurement": "Throat irritation", "setting": "[1]", "result": "3 (8.6%) no. subjects (%)"}, {"measurement": "Tinnitus", "setting": "[1]", "result": "2 (5.7%) no. subjects (%)"}, {"measurement": "Toothache", "setting": "[1]", "result": "0 no. subjects (%)"}, {"measurement": "Upper respiratory tract infection", "setting": "[1]", "result": "0 no. subjects (%)"}, {"measurement": "Vertigo", "setting": "[1]", "result": "4 (11.4%) no. subjects (%)"}, {"measurement": "Vision blurred", "setting": "[1]", "result": "3 (8.6%) no. subjects (%)"}, {"measurement": "Vomiting", "setting": "[1]", "result": "7 (20.0%) no. subjects (%)"}, {"measurement": "Weight increased", "setting": "[1]", "result": "2 (5.7%) no. subjects (%)"}, {"measurement": "Aggression", "setting": "[2]", "result": "1 (2.9%) no. subjects (%)"}, {"measurement": "Agitation", "setting": "[2]", "result": "1 (2.9%) no. subjects (%)"}, {"measurement": "Cardiac disorders", "setting": "[2]", "result": "1 (2.9%) no. subjects (%)"}, {"measurement": "Dissociative disorder", "setting": "[2]", "result": "0 no. subjects (%)"}, {"measurement": "Dizziness", "setting": "[2]", "result": "1 (2.9%) no. subjects (%)"}, {"measurement": "Dysgeusia", "setting": "[2]", "result": "1 (2.9%) no. subjects (%)"}, {"measurement": "Dyspnea", "setting": "[2]", "result": "1 (2.9%) no. subjects (%)"}, {"measurement": "Gastrointestinal disorders", "setting": "[2]", "result": "1 (2.9%) no. subjects (%)"}, {"measurement": "Nausea", "setting": "[2]", "result": "1 (2.9%) no. subjects (%)"}, {"measurement": "Nervous system disorders", "setting": "[2]", "result": "2 (5.7%) no. subjects (%)"}, {"measurement": "Panic attack", "setting": "[2]", "result": "0 no. subjects (%)"}, {"measurement": "Psychiatric disorders", "setting": "[2]", "result": "2 (5.7%) no. subjects (%)"}, {"measurement": "Respiratory, thoracic and mediastinal disorders", "setting": "[2]", "result": "1 (2.9%) no. subjects (%)"}, {"measurement": "Total no. subjects with TEAE leading to study discontinuation", "setting": "[2]", "result": "5 (14.3%) no. subjects (%)"}, {"measurement": "Ventricular extrasystoles", "setting": "[2]", "result": "1 (2.9%) no. subjects (%)"}, {"measurement": "Abdominal pain", "setting": "[3]", "result": "1 (3.7%) no. subjects (%)"}, {"measurement": "Abdominal tenderness", "setting": "[3]", "result": "1 (3.7%) no. subjects (%)"}, {"measurement": "Aphthous ulcer", "setting": "[3]", "result": "0 no. subjects (%)"}, {"measurement": "Back pain", "setting": "[3]", "result": "1 (3.7%) no. subjects (%)"}, {"measurement": "Bronchitis", "setting": "[3]", "result": "0 no. subjects (%)"}, {"measurement": "Cellulitis", "setting": "[3]", "result": "0 no. subjects (%)"}, {"measurement": "Cogwheel rigidity", "setting": "[3]", "result": "1 (3.7%) no. subjects (%)"}, {"measurement": "Contusion", "setting": "[3]", "result": "1 (3.7%) no. subjects (%)"}, {"measurement": "Depressed mood", "setting": "[3]", "result": "0 no. subjects (%)"}, {"measurement": "Depression", "setting": "[3]", "result": "1 (3.7%) no. subjects (%)"}, {"measurement": "Diarrhea", "setting": "[3]", "result": "1 (3.7%) no. subjects (%)"}, {"measurement": "Dizziness", "setting": "[3]", "result": "1 (3.7%) no. subjects (%)"}, {"measurement": "Drug hypersensitivity", "setting": "[3]", "result": "0 no. subjects (%)"}, {"measurement": "Dry mouth", "setting": "[3]", "result": "2 (7.4%) no. subjects (%)"}, {"measurement": "Dysgeusia", "setting": "[3]", "result": "1 (3.7%) no. subjects (%)"}, {"measurement": "Ear and labyrinth disorders", "setting": "[3]", "result": "0 no. subjects (%)"}, {"measurement": "Ear infection", "setting": "[3]", "result": "1 (3.7%) no. subjects (%)"}, {"measurement": "Epistaxis", "setting": "[3]", "result": "1 (3.7%) no. subjects (%)"}]}]}
